Reference: ChEMBL document CHEMBL1145340, “Potential lead for an Alzheimer drug: a peptide that blocks intermolecular interaction and amyloid beta protein-induced cytotoxicity” (J Med Chem, 2006)
Calls of active or inactive are those of the source. The calls are words filed in the database; no cut-off is given here. Peptide text beside a SMILES is read from it.

Key:
PC-12 [1] = test: Protection against beta amyloid 42-induced neurotoxicity in rat PC12 cells by MTT reduction assay; assay type: functional, cell-based
[2] = molecular target: Amyloid-beta precursor protein (Homo sapiens) (UniProt P05067); test: Inhibition of self-aggregation of beta amyloid 42 by thioflavin T assay; assay type: functional
[3] = molecular target: Amyloid-beta precursor protein (Homo sapiens) (UniProt P05067); test: Binding affinity to beta amyloid 42 by ELISA
[4] = molecular target: Amyloid-beta precursor protein (Homo sapiens) (UniProt P05067); test: Binding affinity to beta amyloid 42 at 10 uM to 100 uM by ELISA
PC-12 [5] = test: Neutralizing activity against beta amyloid 42-induced cytotoxicity in rat PC12 cells at 100 uM by MTT reduction assay; assay type: functional, cell-based

Sequence of Amyloid-beta precursor protein (Homo sapiens) (P05067 whole entry): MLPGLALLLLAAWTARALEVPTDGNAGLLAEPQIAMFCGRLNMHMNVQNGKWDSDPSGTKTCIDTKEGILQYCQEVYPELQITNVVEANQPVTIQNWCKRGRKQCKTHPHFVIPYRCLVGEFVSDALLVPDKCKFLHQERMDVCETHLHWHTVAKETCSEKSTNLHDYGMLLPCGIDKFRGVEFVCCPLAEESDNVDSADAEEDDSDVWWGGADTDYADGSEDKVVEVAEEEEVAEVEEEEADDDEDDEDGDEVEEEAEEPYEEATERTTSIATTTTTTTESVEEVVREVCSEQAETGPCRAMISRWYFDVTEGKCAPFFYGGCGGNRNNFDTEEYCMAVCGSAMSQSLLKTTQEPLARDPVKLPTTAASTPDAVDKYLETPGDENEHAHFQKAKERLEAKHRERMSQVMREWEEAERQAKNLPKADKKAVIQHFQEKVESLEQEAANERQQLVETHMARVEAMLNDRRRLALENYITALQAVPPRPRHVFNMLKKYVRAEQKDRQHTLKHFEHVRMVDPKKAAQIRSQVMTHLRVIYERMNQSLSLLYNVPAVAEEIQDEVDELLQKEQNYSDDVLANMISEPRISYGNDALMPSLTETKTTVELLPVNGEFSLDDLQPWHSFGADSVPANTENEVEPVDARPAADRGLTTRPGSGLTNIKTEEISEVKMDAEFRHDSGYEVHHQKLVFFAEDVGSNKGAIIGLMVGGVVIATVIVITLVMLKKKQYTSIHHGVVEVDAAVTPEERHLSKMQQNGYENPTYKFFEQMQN

| Compound | Activity (PC-12 [1]) | further results |
| --- | --- | --- |
| H-IFCKE-OH | inactive | – |
| H-KEHQF-OH | inactive | Activity [2]: inactive |
| CC[C@H](C)[C@H](NC(=O)[C@H](Cc1c[nH]cn1)NC(=O)[C@@H](NC(=O)[C@H](CCCN=C(N)N)NC(=O)[C@@H](NC(=O)[C@H](Cc1ccccc1)NC(=O)[C@@H](NC(=O)[C@@H](N)CS)[C@@H](C)O)C(C)C)[C@@H](C)O)C(=O)N[C@@H](Cc1ccccc1)C(=O)N[C@@H](CS)C(=O)N[C@@H](CCCCN)C(=O)N[C@@H](CCC(=O)O)C(=O)N[C@@H](Cc1c[nH]cn1)C(=O)N[C@@H](CCC(N)=O)C(=O)N[C@@H](Cc1ccccc1)C(=O)O (H-CTFVRTHIFCKEHQF-OH) | Dose-dependent effect | Activity [2]: Dose-dependent effect; Activity [3]: Active |
| H-FNHKKRLLHPSLFPR-OH | – | Activity [2]: inactive; Activity [3]: inactive |
| H-FVRTH-OH | inactive | – |
| CC(C)[C@H](NC(=O)[C@H](Cc1ccccc1)NC(=O)[C@@H](NC(=O)[C@@H](N)CS)[C@H](C)O)C(=O)N[C@@H](CCCN=C(N)N)C(=O)O | inactive | Activity [3]: Active |
| H-HESNDCTFVRT-OH | – | Activity [4]: Active; Activity (PC-12 [5]): inactive |
| H-CKEHQ-OH | inactive | – |
| H-THIFC-OH | inactive | – |
| H-HESNDCTFV-OH | – | Activity [3]: inactive |
| H-FCKEH-OH | inactive | – |
| H-HIFCK-OH | inactive | – |
| H-VRTHI-OH | inactive | – |
| CC(C)[C@H](NC(=O)[C@H](Cc1ccccc1)NC(=O)[C@@H](N)[C@H](C)O)C(=O)N[C@@H](CCCN=C(N)N)C(=O)N[C@H](C(=O)O)[C@H](C)O | inactive | – |
